Data: patent publication US20250011299A1, “PYRIDAZINYL AMINO DERIVATIVES AS ALK5 INHIBITORS” (CHIESI FARMACEUTICI S.P.A., priority 2021, published 2025)

Target: T1, human ALK5 (Homo sapiens, UniProt P36897)
T1 construct: human ALK5 (recombinant TGF β1 N-term GST-tagged, 80-end); GST (N); purchased
T1 sequence (P36897 80-503 limits assumed): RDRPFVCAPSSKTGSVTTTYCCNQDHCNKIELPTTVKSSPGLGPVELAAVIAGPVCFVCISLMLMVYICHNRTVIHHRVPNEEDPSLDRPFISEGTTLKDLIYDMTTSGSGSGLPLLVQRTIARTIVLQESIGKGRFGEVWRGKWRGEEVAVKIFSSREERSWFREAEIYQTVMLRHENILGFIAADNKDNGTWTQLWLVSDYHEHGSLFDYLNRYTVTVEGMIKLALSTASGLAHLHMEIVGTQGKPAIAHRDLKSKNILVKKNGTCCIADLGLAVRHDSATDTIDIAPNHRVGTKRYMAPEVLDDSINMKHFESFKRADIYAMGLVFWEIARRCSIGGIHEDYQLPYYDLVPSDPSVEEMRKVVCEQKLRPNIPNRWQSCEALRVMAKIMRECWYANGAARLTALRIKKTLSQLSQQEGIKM
Assay: ADP-GLO Kinases assay of ALK5 enzymatic activity
Assay type: biochemical
Details: purified recombinant human ALK5, TGFβ1 peptide substrate, pIC50 converted to pKi by Cheng-Prusoff, high ATP protocol (15 μM) for very potent compounds, 25° C.
Protocol: The enzymatic activity of compounds of the present invention was monitored measuring the formation of ADP using the ADP-GLO Kinases assay. Following the incubation of the purified enzyme, a substrate and ATP, the produced ADP was converted into ATP, which in turn was converted into light by Ultra-Glo Luciferase. The luminescent signal positively correlated with ADP amount and kinase activity. […] Compound and ALK5 kinase were mixed and incubated for 15 mins. […] After an incubation of 120 min, the reaction was stopped, and ADP production detected with ADP-Glo kit according to manufacturer's indications. […] After an incubation of 60 min, the kinase reaction was stopped, and ADP production detected with ADP-Glo kit according to manufacturer's indications. All reaction and incubation steps were performed at 25° C. and the assays were performed in 384-well format and validated using a selection of reference compounds tested in 11-point concentration-response curve. […] Results were expressed as pIC50 (negative logarithm of IC50) and subsequently converted to pKi (negative logarithm of […]) using the Cheng-Prusoff equation. The higher the value of pKi, the greater the inhibition of ALK5 activity.

`CN1C2CC1CN([C@H]1C[C@@H](C(=O)Nc3cc(Nc4cc(-c5cc(Cl)ccc5F)nnc4SCCO)ccn3)C1)C2` [Example 175, Cis N-(4-{[6-(5-chloro-2-fluorophenyl)-3-[(2-hydroxyethyl)sulfanyl]pyridazin-4-yl]amino}pyridin-2-yl)-3-{6-methyl-3,6-diazabicyclo[3.1.1]heptan-3-yl}cyclobutane-1-carboxamide] and `CN1CCN([C@H]2C[C@@H](C(=O)Nc3cc(Nc4cc(-c5cc(Cl)ccc5F)nnc4SCCO)ccn3)C2)CC1CCF` (mixture of isomers) [Example 172, Cis N-(4-{[6-(5-chloro-2-fluorophenyl)-3-[(2-hydroxyethyl)sulfanyl]pyridazin-4-yl]amino}pyridin-2-yl)-3-[3-(2-fluoroethyl)-4-methylpiperazin-1-yl]cyclobutane-1-carboxamide] cannot be ordered by Ki: ≤ 0.1 nM for the first, ≤ 0.1 nM for the second.

Compared with `COC(=O)C12CC(COc3nnc(-c4cc(Cl)ccc4F)cc3Nc3ccnc(NC(=O)CCN4CCN(C)CC4)c3)(C1)C2` [Example 125, methyl 3-({[6-(5-chloro-2-fluorophenyl)-4-({2-[3-(4-methylpiperazin-1-yl)propanamido]pyridin-4-yl}amino)pyridazin-3-yl]oxy}methyl)bicyclo[1.1.1]pentane-1-carboxylate], `CN1CCN(CCC(=O)Nc2cc(Nc3cc(-c4cc(Cl)ccc4F)nnc3OCC(F)(F)F)ccn2)CC1` [Example 50, N-(4-{[6-(5-chloro-2-fluorophenyl)-3-(2,2,2-trifluoroethoxy)pyridazin-4-yl]amino}pyridin-2-yl)-3-(4-methylpiperazin-1-yl)propanamide] is lower in Ki: 0.126 to 0.316 nM for the first, ≤ 0.1 nM for the second.

Compared with `CN1CCN(CCOc2ccc3c(Nc4cc(-c5cc(Cl)ccc5F)nnc4OCCO)ccnc3c2)CC1` [Example 2, 2-{[6-(5-chloro-2-fluorophenyl)-4-({7-[2-(4-methylpiperazin-1-yl)ethoxy]quinolin-4-yl}amino)pyridazin-3-yl]oxy}ethan-1-ol], `CN1CCN(CCOc2ccc3c(Nc4cc(-c5cc(Cl)ccc5F)nnc4OCCN)ccnc3c2)CC1` [Example 5, N-[3-(2-aminoethoxy)-6-(5-chloro-2-fluorophenyl)pyridazin-4-yl]-7-[2-(4-methylpiperazin-1-yl)ethoxy]quinolin-4-amine] is higher in Ki: ≤ 0.1 nM for the first, 0.126 to 0.316 nM for the second. The first binds more tightly here.

`CN1CCN(CCC(=O)Nc2cc(Nc3cc(-c4cc(Cl)ccc4F)nnc3N(C)C)ccn2)CC1` [Example 30, N-(4-{[6-(5-chloro-2-fluorophenyl)-3-(dimethylamino)pyridazin-4-yl]amino}pyridin-2-yl)-3-(4-methylpiperazin-1-yl)propanamide] and `CN1CCN(CCC(=O)Nc2cc(Nc3cc(-c4cc(Cl)ccc4F)nnc3SCC3COC(C)(C)O3)ccn2)CC1` (centres unmarked) [Example 85, N-(4-{[6-(5-chloro-2-fluorophenyl)-3-{[(2,2-dimethyl-1,3-dioxolan-4-yl)methyl]sulfanyl}pyridazin-4-yl]amino}pyridin-2-yl)-3-(4-methylpiperazin-1-yl)propanamide] cannot be ordered by Ki: ≤ 0.1 nM for the first, ≤ 0.1 nM for the second.

`CN1CCN([C@H]2C[C@@H](C(=O)Nc3cc(Nc4cc(-c5cc(Cl)ccc5F)nnc4OC4CCOC4)ccn3)C2)CC1` (single isomer, unassigned) [Example 113, N-(4-{[6-(5-chloro-2-fluorophenyl)-3-(oxolan-3-yloxy)pyridazin-4-yl]amino}pyridin-2-yl)-3-(4-methylpiperazin-1-yl)cyclobutane-1-carboxamide] and `CN1CCN([C@H]2C[C@@H](C(=O)Nc3cc(Nc4cc(-c5cc(Cl)ccc5F)nnc4N(C)CC4(C)CCOC4=O)ccn3)C2)CC1` (single isomer, unassigned) [Example 136, Cis N-(4-{[6-(5-chloro-2-fluorophenyl)-3-{methyl[(3-methyl-2-oxooxolan-3-yl)methyl]amino}pyridazin-4-yl]amino}pyridin-2-yl)-3-(4-methylpiperazin-1-yl)cyclobutane-1-carboxamide] fall in the same range of Ki: 0.126 to 0.316 nM for the first, 0.126 to 0.316 nM for the second.

`C[S+]([O-])CCCOc1nnc(-c2cc(Cl)ccc2F)cc1Nc1ccnc(N)c1` (centres unmarked) [Example 57, N4-[6-(5-chloro-2-fluorophenyl)-3-(3-methanesulfinylpropoxy)pyridazin-4-yl]pyridine-2,4-diamine] and `CN(C)CCOc1nnc(-c2cc(Cl)ccc2F)cc1Nc1ccnc2[nH]ccc12` [Example 41, 6-(5-chloro-2-fluorophenyl)-3-[2-(dimethylamino)ethoxy]-N-{1H-pyrrolo[2,3-b]pyridin-4-yl}pyridazin-4-amine] fall in the same range of Ki: 0.398 to 3.16 nM for the first, 0.398 to 3.16 nM for the second.

`CN1C[C@@H]2C[C@H]1CN2CC(=O)Nc1cc(Nc2cc(-c3cc(Cl)ccc3F)nnc2OC[C@H]2C[C@@H](O)C2)ccn1` [Example 122, N-(4-{[6-(5-chloro-2-fluorophenyl)-3-[(3-hydroxycyclobutyl)methoxy]pyridazin-4-yl]amino}pyridin-2-yl)-2-[(1S,4S)-5-methyl-2,5-diazabicyclo[2.2.1]heptan-2-yl]acetamide] and `COCCOc1nnc(-c2cc(Cl)ccc2F)cc1Nc1ccnc(NC(=O)CCN2CCN(CC(F)(F)F)CC2)c1` [Example 33, N-(4-{[6-(5-chloro-2-fluorophenyl)-3-(2-methoxyethoxy)pyridazin-4-yl]amino}pyridin-2-yl)-3-[4-(2,2,2-trifluoroethyl)piperazin-1-yl]propanamide] cannot be ordered by Ki: ≤ 0.1 nM for the first, ≤ 0.1 nM for the second.

`CN1CCN(CCC(=O)Nc2cc(Nc3cc(-c4cc(Cl)ccc4F)nnc3SCCOCCO)ccn2)CC1` [Example 194, N-(4-{[6-(5-chloro-2-fluorophenyl)-3-{[2-(2-hydroxyethoxy)ethyl]sulfanyl}pyridazin-4-yl]amino}pyridin-2-yl)-3-(4-methylpiperazin-1-yl)propanamide] and `CN1CCN(CCC(=O)Nc2cc(Nc3cc(-c4cc(Cl)ccc4F)nnc3SCCO)ncn2)CC1` [Example 176, N-(6-{[6-(5-chloro-2-fluorophenyl)-3-[(2-hydroxyethyl)sulfanyl]pyridazin-4-yl]amino}pyrimidin-4-yl)-3-(4-methylpiperazin-1-yl)propanamide] cannot be ordered by Ki: ≤ 0.1 nM for the first, ≤ 0.1 nM for the second.

Compared with `CC(C)OC(=O)C1CCN1c1nnc(-c2cc(Cl)ccc2F)cc1Nc1ccnc(NC(=O)CCN2C[C@@H](C)N[C@@H](C)C2)c1` (mixture of isomers) [Example 184, propan-2-yl 1-[6-(5-chloro-2-fluorophenyl)-4-({2-[3-(3,5-dimethylpiperazin-1-yl)propanamido]pyridin-4-yl}amino)pyridazin-3-yl]azetidine-2-carboxylate], `C[C@@H]1CN(CCC(=O)Nc2cc(Nc3cc(-c4cc(Cl)ccc4F)nnc3SCCO)ncn2)C[C@H](C)N1` [Example 177, N-(6-{[6-(5-chloro-2-fluorophenyl)-3-[(2-hydroxyethyl)sulfanyl]pyridazin-4-yl]amino}pyrimidin-4-yl)-3-(3,5-dimethylpiperazin-1-yl)propanamide] is lower in Ki: 0.398 to 3.16 nM for the first, ≤ 0.1 nM for the second. The second binds more tightly here.

`CSc1nnc(-c2cc(Cl)ccc2F)cc1Nc1ccnc(NC(=O)CCN2CCNCC2)c1` [Example 62, N-(4-{[6-(5-chloro-2-fluorophenyl)-3-(methylsulfanyl)pyridazin-4-yl]amino}pyridin-2-yl)-3-(piperazin-1-yl)propanamide] and `O=C(CCN1CCNCC1)Nc1cc(Nc2cc(-c3cc(Cl)ccc3F)nnc2SCCO)ccn1` [Example 153, N-(4-{[6-(5-chloro-2-fluorophenyl)-3-[(2-hydroxyethyl)sulfanyl]pyridazin-4-yl]amino}pyridin-2-yl)-3-(piperazin-1-yl)propanamide] cannot be ordered by Ki: ≤ 0.1 nM for the first, ≤ 0.1 nM for the second.
